Experimental data from article PMC10363532, “Xanthone synthetic derivatives with high anticandidal activity and positive mycostatic selectivity index values” (Scientific Reports, 2023).

Target: T1, yeast topoisomerase II (yTOPO II) (Saccharomyces cerevisiae, UniProt P06786)
T1 construct: gene TOP2; purified enzyme from the Inspiralis yeast topoisomerase II relaxation assay kit
T1 sequence (P06786 1-1428): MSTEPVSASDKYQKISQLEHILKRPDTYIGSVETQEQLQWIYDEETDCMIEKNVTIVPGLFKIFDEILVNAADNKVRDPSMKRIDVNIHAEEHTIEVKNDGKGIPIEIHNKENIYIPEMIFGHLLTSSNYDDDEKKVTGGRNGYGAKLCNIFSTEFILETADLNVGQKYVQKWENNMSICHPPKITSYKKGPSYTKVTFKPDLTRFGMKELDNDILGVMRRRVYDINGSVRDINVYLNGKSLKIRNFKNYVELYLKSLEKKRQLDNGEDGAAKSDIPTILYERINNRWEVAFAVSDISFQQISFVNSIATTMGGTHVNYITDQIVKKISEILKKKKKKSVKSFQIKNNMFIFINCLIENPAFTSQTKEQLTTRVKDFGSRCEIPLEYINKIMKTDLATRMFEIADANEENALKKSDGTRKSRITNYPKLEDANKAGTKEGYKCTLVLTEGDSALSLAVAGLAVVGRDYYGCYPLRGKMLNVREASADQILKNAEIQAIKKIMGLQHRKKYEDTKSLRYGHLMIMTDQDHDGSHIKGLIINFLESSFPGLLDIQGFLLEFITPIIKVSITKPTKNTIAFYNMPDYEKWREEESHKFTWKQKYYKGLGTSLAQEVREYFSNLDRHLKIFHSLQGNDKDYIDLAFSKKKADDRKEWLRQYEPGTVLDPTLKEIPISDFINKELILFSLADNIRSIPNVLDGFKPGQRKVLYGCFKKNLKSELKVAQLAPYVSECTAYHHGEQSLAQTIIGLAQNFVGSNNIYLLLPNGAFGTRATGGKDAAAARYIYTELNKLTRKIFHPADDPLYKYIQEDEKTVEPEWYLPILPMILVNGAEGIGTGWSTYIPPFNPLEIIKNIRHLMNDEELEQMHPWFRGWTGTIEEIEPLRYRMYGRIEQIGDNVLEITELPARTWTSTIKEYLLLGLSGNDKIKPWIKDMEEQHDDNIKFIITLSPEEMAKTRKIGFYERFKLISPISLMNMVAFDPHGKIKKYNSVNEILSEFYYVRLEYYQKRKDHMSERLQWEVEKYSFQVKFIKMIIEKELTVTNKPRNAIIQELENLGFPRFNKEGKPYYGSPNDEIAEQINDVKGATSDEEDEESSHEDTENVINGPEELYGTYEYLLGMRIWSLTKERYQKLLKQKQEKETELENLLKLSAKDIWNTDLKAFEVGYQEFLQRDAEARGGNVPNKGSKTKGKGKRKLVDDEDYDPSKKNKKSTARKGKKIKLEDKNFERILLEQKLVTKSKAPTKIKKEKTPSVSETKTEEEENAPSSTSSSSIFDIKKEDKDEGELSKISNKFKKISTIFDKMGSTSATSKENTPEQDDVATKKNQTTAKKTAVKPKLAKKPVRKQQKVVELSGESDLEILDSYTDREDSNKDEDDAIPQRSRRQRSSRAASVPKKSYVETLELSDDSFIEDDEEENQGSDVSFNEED
Experiment: plasmid DNA relaxation assay, gel densitometry
Format: biochemical
Settings: for Complete inhibition: supercoiled pBR322 as DNA substrate
Text: plasmid DNA relaxation assay, gel densitometry on yeast topoisomerase II (yTOPO II)

`CCN(CC)CCn1nc2c3c(c([N+](=O)[O-])ccc31)Oc1cc3ccccc3cc1-2` [compound 13, 13] was tested, and the “Complete inhibition” value was greater than 150 µM.
With `O=c1c2cc3ccccc3cc2oc2c([N+](=O)[O-])ccc(NCCN3CCCC3)c12` [compound 9, 9] the “Complete inhibition” value (highest concentration limited by solubility) was greater than 50 µM.
`CN1CCN(CCCNc2ccc([N+](=O)[O-])c3oc4cc5ccccc5cc4c(=O)c23)CC1` [compound 42, 1-((3-(4-methylpiperazin-1-yl)propyl)amino)-4-nitro-12H-benzo[b]xanthen-12-one] showed an IC50 of 5.86 ± 1.07 µM.
`O=c1c2cc3ccccc3cc2oc2c([N+](=O)[O-])ccc(NCCN3CCOCC3)c12` [compound 44, 1-((2-morpholinoethyl)amino)-4-nitro-12H-benzo[b]xanthen-12-one] showed an IC50 of 5.36 ± 1.22 µM.
